According to a melting point compilation (Tetko et al.; mined from patent text by program, amines drawn as free bases though some values may be those of a salt):

| SMILES | melting point [°C] |
| --- | --- |
| O=C(NC1CCN(CCc2cccc3ccccc23)CC1)c1ccccc1 | 160 to 162 |
| Cc1ccc(Cn2c(=O)c3c(Cl)cc(Cl)cc3n(Cc3ccccc3)c2=O)o1 | 159 to 161 |
| CCCc1nc(C=NNC(=O)OCC)c[nH]1 | 180 to 182 |
| COc1ccc(CNCC(O)c2ccccc2)cc1OC (stereo unspecified) | 93 to 94 |
| COc1ccccc1Oc1c(NS(=O)(=O)c2cccs2)nc(-c2ncccn2)nc1OCCOc1ncc(Br)cn1 | > 300 |
| CCN(CC)C(=N)N[N+](=O)[O-] | 96 to 97 |
| N=C(NO)c1cc(Oc2ccc(Cl)cc2Cl)c(O)cc1Cl | 137 |
| O=C(c1cccs1)c1cnn2c(-c3cccc(-c4ccc(CO)cc4)c3)ccnc12 | 106 to 110 |
| O=C(O)CCC/C=C/c1ccc(-c2ccccc2)cc1 | 107 to 109 |
| O=C1CN(c2ccccc2)C(=O)N1C(=O)c1ccccc1Oc1ccccc1 | 127 to 128 |
| CS(=O)(=O)OCCN1c2ccccc2Oc2ccccc21 | 81 to 83 |
| COC(=O)/C=C/c1c(O)cccc1OCCCCC(=O)OC | 97 to 98 |
| C[C@@H](NC(=O)c1cccc(-c2ccc(Cl)cc2)c1)[C@](O)(Cn1cncn1)c1ccc(F)cc1F | 90 to 91 |
| CCOC(=O)C1(Cc2ccc(OC)cc2)CCCC1 | 63.5 to 64.5 |
| COc1ccc(-c2ccc(C(=O)Nc3ccc4cc(CN5CCCC5)cnc4c3F)cc2)cc1 | 217 to 220 |
| CCCCCCCCCCCCCCOc1cc(OC)cc(N)c1OCOC | 66 to 67 |
| Clc1cccnc1-c1ccc2[nH]nc(Nc3ncc(CN4CCOCC4)s3)c2c1 | 217 |
| CC1(C)COC(=O)N1c1nc(-c2ccccc2)cs1 | 94 to 97 |
| CCC(O)(c1c(C(C)C)nn2ccccc12)C(C)C (stereo unspecified) | 96 to 98 |
| O=C1CCC2(CC1)CCC(O)CC2 | 65 to 67 |
| COC1CC2(C)C(CCC3C4CCC(C(=O)CBr)C4(C)CC(=O)C32)CC1O (stereo unspecified) | 185 to 188 |

| SMILES | melting point [°C] |
| --- | --- |
| C=CCN1CC(C(=O)Nc2cc(C)nc(C)n2)CC2c3cccc4[nH]cc(c34)CC21 (stereo unspecified) | 182 to 186 |
| N#Cc1c(N)oc2c(-c3ccccc3)cccc2c1=O | 217 to 219 |
| CS(=O)(=O)c1ccc(-c2cc(C(=O)CCCO[N+](=O)[O-])nn2-c2ccccc2)cc1 | 142 to 144 |
| O=C(COc1ccc([N+](=O)[O-])cc1)OCCO | 73.5 to 75.5 |
| COc1ccc(C(=O)C=Cc2cccc(N(C)C)c2)c(OC)c1OC | 87.2 to 87.9 |
| Nc1nnc(CCC2CCCCC2)s1 | 253 to 255 |
| COc1cc2c(cc1OC)C(N(CC(=O)O)C(=O)C(CSC(C)=O)CSC(C)=O)CC2 (stereo unspecified) | 140 to 143 |
| CN(C)C1(c2ccccc2)CCC(CNC(=O)N2CCC(c3c[nH]c4ccccc34)CC2)CC1 (stereo unspecified) | 104 to 107 |
| CN1CCC(c2c(O)cc(O)c3c(=O)cc(-c4ccccc4O)oc23)C1CO (stereo unspecified) | 212 to 213 |
| CC(=O)c1cc(-c2ccc(C(C)(C)C)cc2)c2c(c1)C(C)(C)CCC2(C)C | 134 |
| CCc1cc(Oc2ncc(C(F)(F)F)cc2Cl)n[nH]1 | 55 to 57 |
| CP1(=O)c2ccccc2CN1c1ccc(Cl)c(Cl)c1 (stereo unspecified) | 152 to 154 |
| Cn1nc(-c2cnc3[nH]cc(C(=O)NC4CCCCC4)c3n2)c2ccc(Cl)cc21 | 321 to 323 |
| NCCOCC(P(=O)(O)O)P(=O)(O)O | > 300 |
| Cc1nnc2n1-c1sc(CCS(=O)(=O)N3CCN(C)CC3)cc1C(c1ccccc1Cl)=NC2 | 148 to 150 |
| CC(CCl)CCCC(C)C1CC=C2C3=C(CCC21C)C1(C)CCC(O)C(C)(C)C1CC3 (stereo unspecified) | 145 to 146 |
| COC1=C(OC)C(=O)c2c(cccc2S(=O)(=O)c2ccccc2)C1=O | 141 to 142 |
| CCCc1c(OCCCOc2ccc3c(c2CCC)OC(CCC(=O)OCC)CC3)ccc(C(C)=O)c1O (stereo unspecified) | 68 to 70 |
| O/N=C1\CCCc2c1c1ccccc1n2-c1ccc(OCc2ccccc2)cc1 | 241 to 243 |
| Cc1c(F)c(F)cc(C(=O)O)c1Cl | 121 to 122 |
